Reference: patent publication US20060172990A1, “Antibacterial agents” (priority 2002, published 2006)
In brackets after ≈: the same amount, converted by molar mass.

Key:
Format in all cases: cell-based
S. pneumoniae = assay: MIC by agar plate dilution against clinical isolates of S. pneumoniae; settings: 3 strains (clinical isolates), Iso-Sensitest agar, 18 to 24 hr, 35° C.
Procedure: (§1) Minimal Inhibitory concentrations (MIC) of inhibitors against clinical isolates of S. pneumoniae, H. influenzae and M. catarrhalis obtained from the Public Health and Clinical Microbiology Laboratory, Addenbrooke's Hospital, Hills Road, Cambridge CB2 2QW, UK, were determined by a standard agar plate dilution method following recommendations in British Society for Antimicrobial Chemotherapy Working Party. 1991 “A guide to sensitivity testing British Society for Antimicrobial Chemomtherapy, London, United Kingdom”. Briefly Iso-Sensitest agar (pH 7.2: Oxoid, United Kingdom) was employed supplemented with 5% horse blood (Oxoid) and 20 μg of NAD (Sigma) per ml to support growth of fastidious bacteria. The inoculum used was approximately 10^4 colony forming units of each isolate contained in a volume of 1 μl. Plate were incubated 18 to 24 hr in air, -or for fastidious bacteria an atmosphere enriched with 4-6% carbon dioxide at 35° C. The MIC was determined as the lowest concentration of an antimicrobial tested that inhibited growth of the inoculum, disregarding a single persisting colony or faint haze caused by the inoculation.
(§2) The compounds of the Examples were are antibacterially active in the above assays, The following table states the MIC ranges of the tested compounds against 3 strains of S. pneumoniae, 2 strains of H. influenzae and 1 strain of M. catarrhalis.

M. catarrhalis = assay: MIC by agar plate dilution against clinical isolate of M. catarrhalis; settings: Moraxella catarrhalis, 1 strain (clinical isolate), Iso-Sensitest agar, 18 to 24 hr, 35° C.
Procedure: as §1, §2

H. influenzae = assay: MIC by agar plate dilution against clinical isolates of H. influenzae; settings: Haemophilus influenzae, 2 strains (clinical isolates), Iso-Sensitest agar, 18 to 24 hr, 35° C., read-out: MIC range H. influenzae
Procedure: as §1, §2

CC(C)N(CC(=O)N1CCCC1)NC(=O)[C@H](CC1CCCC1)CN(O)C=O [Example 2]
MIC range S. pneumoniae (S. pneumoniae): 4 to 16 µg/mL | MIC (M. catarrhalis): 0.5 µg/mL (≈ 1.31 µM) | MIC (H. influenzae): 8 µg/mL (≈ 20.9 µM)

CC(C)N(CC(=O)N(C)C)NC(=O)[C@H](CC1CCCC1)CN(O)C=O [Example 3, 2-{N′-[(2R)-Cyclopentylmethyl-3-(formyl-hydroxy-amino)-propionyl]-N-isopropyl-hydrazino}-N,N-dimethyl-acetamide]
MIC (M. catarrhalis): 0.5 µg/mL (≈ 1.4 µM) | MIC (H. influenzae): 0.5 to 1 µg/mL (≈ 1.4 to 2.81 µM)

COc1cc2c(cc1OC)CN(C(=O)CN(NC(=O)[C@H](CC1CCCC1)CN(O)C=O)C(C)C)CC2 [Example 4, N-{3-Cyclopentyl-(2R)-[N′-[2-(6,7-dimethoxy-3,4-dihydro-1H-isoquinolin-2-yl)-2-oxo-ethyl]-N′-isopropyl-hydrazinocarbonyl}-propyl)-N-hydroxy-formamide]
MIC range S. pneumoniae (S. pneumoniae): 1 to 2 µg/mL | MIC (M. catarrhalis): 0.5 µg/mL (≈ 0.991 µM) | MIC (H. influenzae): 32 µg/mL (≈ 63.4 µM)

CC(C)N(CC(=O)N1CCN(Cc2ccc3c(c2)OCO3)CC1)NC(=O)[C@H](CC1CCCC1)CN(O)C=O [Example 5, N-(2-{N′-[(2R)-(4-Benzo[1,3]dioxol-5-ylmethyl-piperazin-1-yl)-2-oxo-ethyl]-N′-isopropyl-hydrazinocarbonyl}-3-cyclopentylpropyl)-N-hydroxy formamide]
MIC range S. pneumoniae (S. pneumoniae): 1 to 4 µg/mL | MIC (M. catarrhalis): 1 µg/mL (≈ 1.88 µM) | MIC (H. influenzae): > 32 µg/mL

CC(C)N(CC(=O)Nc1cccnc1)NC(=O)[C@H](CC1CCCC1)CN(O)C=O [Example 6]
MIC (M. catarrhalis): 2 µg/mL (≈ 4.93 µM) | MIC (H. influenzae): 32 µg/mL (≈ 78.9 µM)

CC(C)N(CC(=O)Nc1nccs1)NC(=O)[C@H](CC1CCCC1)CN(O)C=O [Example 7, 2-{N′-[(2R)-Cyclopentylmethyl-3-(formyl-hydroxy-amino)-propionyl]-N-isopropyl-hydrazino}-N-thiazol-2-yl-acetamide]
MIC range S. pneumoniae (S. pneumoniae): 16 to 32 µg/mL | MIC (M. catarrhalis): 2 µg/mL (≈ 4.86 µM) | MIC (H. influenzae): 16 to 32 µg/mL (≈ 38.9 to 77.8 µM)

Cc1coc(NC(=O)CN(NC(=O)[C@H](CC2CCCC2)CN(O)C=O)C(C)C)n1 [Example 8, 2-{N′-[(2R)-Cyclopentylmethyl-3-(formyl-hydroxy-amino)-propionyl]-N-isopropyl-hydrazino}-N-(4-methyl-oxazol-2-yl)-acetamide]
MIC range S. pneumoniae (S. pneumoniae): 8 to 16 µg/mL | MIC (M. catarrhalis): 2 µg/mL (≈ 4.88 µM)

Cc1csc(NC(=O)CN(NC(=O)[C@H](CC2CCCC2)CN(O)C=O)C(C)C)n1 [Example 9, 2-{N′-[(2R)-Cyclopentylmethyl-3-(formyl-hydroxy-amino)-propionyl]-N-isopropyl-hydrazino}-N-(4-methyl-thiazol-2-yl)-acetamide]
MIC range S. pneumoniae (S. pneumoniae): 16 to 32 µg/mL | MIC (M. catarrhalis): 2 µg/mL (≈ 4.7 µM) | MIC (H. influenzae): > 32 µg/mL

CC(C)N(CC(=O)Nc1nc2ccccc2s1)NC(=O)[C@H](CC1CCCC1)CN(O)C=O [Example 10, N-Benzothiazol-2-yl-2-{N′-[(2R)-cyclopentylmethyl-3-(formyl-hydroxy-amino)-propionyl]-N-isopropyl-hydrazino)acetamide]
MIC range S. pneumoniae (S. pneumoniae): 1 to 4 µg/mL | MIC (M. catarrhalis): 2 µg/mL (≈ 4.33 µM) | MIC (H. influenzae): > 32 µg/mL
